Test results published in article PMC4501687, “Design of a Selective Substrate and Activity Based Probe for Human Neutrophil Serine Protease 4” (PLoS ONE, 2015).

Tests used:
NSP4 [1] = target: T1, NSP4 (Homo sapiens, UniProt Q6UWY2); experiment: Inhibition rate constant (kobs/I), pseudo-first order, NSP4; type: biochemical
T1 construct: made in house
T1 sequence (Q6UWY2 32-283): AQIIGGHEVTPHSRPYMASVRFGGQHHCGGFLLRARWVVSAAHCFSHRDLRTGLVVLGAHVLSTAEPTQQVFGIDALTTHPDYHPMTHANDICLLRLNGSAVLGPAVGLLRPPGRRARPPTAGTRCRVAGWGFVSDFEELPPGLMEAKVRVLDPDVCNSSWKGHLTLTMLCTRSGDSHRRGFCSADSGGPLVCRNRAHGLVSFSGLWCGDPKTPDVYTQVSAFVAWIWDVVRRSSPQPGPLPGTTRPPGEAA
Method: (§1) The active concentration of each NSP was determined by PK401 titration in 50 mM Hepes, 0.1 M NaCl, 0.1%TRITON-X100, pH 7.45 assay buffer on 96 wells Corning plates. Rfu/s values were measured for minimum 20 minutes. The excitation wavelength was 355 nm, and the emission wavelength was 460 nm, with a cutoff of 455 nm. Under pseudo-first order conditions, a fixed amount of NSP4 (2.8 nM active enzyme), PR3, NE, or CatG (100 nM active enzyme) was mixed with PK401 at different concentration ranges starting from at least 2-fold excess over NSP4 (6.6–20nM) and 7-fold excess over NE, CatG and PR3 (0.7–50μM). […] Product formation (P) proceeded at an initial velocity (V) and was inhibited over time (t) at a rate of (k a): P = V/ka*(1-e^-ka^*t)+C, where k o is defined as k obs(app) −the apparent rate of inhibition in the presence of substrate. k obs was determined separately for each probe concentration using non-linear regression analysis in GraphPadPrism software. The obtained values were plotted against probe concentration giving k obs(app)/I (apparent second order rate constant). kobs/I (absolute value of the second order rate constant) was then calculated from kobs/I = ka/I *(1+[S]/Km). […]

CatG [2] = target: T2, CatG (Homo sapiens, UniProt P08311); experiment: Inhibition rate constant (kobs/I), pseudo-first order, CatG; type: biochemical; conditions: selectivity NSP4 over CatG
T2 construct: purchased Biocentrum, Krakow, Poland
T2 sequence (P08311 21-255): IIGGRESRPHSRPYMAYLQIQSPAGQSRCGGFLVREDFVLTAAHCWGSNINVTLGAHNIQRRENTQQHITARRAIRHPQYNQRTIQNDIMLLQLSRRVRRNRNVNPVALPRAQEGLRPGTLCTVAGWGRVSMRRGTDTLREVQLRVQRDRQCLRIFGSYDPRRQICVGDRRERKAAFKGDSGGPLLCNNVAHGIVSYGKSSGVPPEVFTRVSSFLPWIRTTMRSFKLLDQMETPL
Method: as §1

NSP4 [3] = target: T1, NSP4; experiment: SDS-PAGE / streptavidin blot labeling of purified NSP4 by probe; type: binding; conditions: 100 nM NSP4, 20 min 37°C; SDS-PAGE, nitrocellulose transfer, fluorescent streptavidin; probe tested 1–2000 nM
Method: 100nM of NSP4 was incubated with competing inhibitor—Ac-IVPR-CMK for 30 minutes at 37°C and then treated with different concentrations of probe—PK401 (2000nM and 1000nM) for 20 minutes at 37°C. Separately, 100nM of NSP4 was incubated with five different concentrations of probe- 2000nM, 1000nM, 100nM, 10nM, and 1 nM for 20 minutes in 37°C. As a control 100nM PK401 was incubated with assay buffer.
(§2) Samples were denatured and run in 4–12% SDS PAGE following transfer to nitrocellulose membrane. The membrane was blocked with 1.5% BSA in TBST overnight at 4°C and treated with IRDye800CW Streptavidin (dilution 1:10000 with 1.5% BSA in TBST) for 45 minutes. Then enzyme was visualized using a Li-cor fluorescence imager and Odyssey Molecular Modeling Software.
(§3) SDS-page and Western Blot […]
A standard SDS broad spectrum marker (Biorad) was used (Fig. 4A, lane 1). […]
(§4) minutes in 37° C (Fig. 4, lanes 4, 5, 6, 7, 8). […] Then enzyme was visualized using a Li-cor fluorescence imager and Odyssey Molecular Modeling Software. […]
(§5) The membrane was blocked with 1.5% BSA in TBST overnight at 4° C and treated with IRDye800CW Streptavidin (dilution 1:10000 with 1,5% BSA in TBST) for 45 minutes. Then PK401 was visualized using a Li-cor fluorescence imager and Odyssey Molecular Modeling Software.

NE = target: T3, NE (Homo sapiens, UniProt P08246); experiment: SDS-PAGE / streptavidin blot labeling of NE by probe; type: binding; conditions: 100 nM active enzyme, 100 nM PK401; streptavidin blot (Fig 4B)
T3 construct: purchased Biocentrum, Krakow, Poland
T3 sequence (P08246 30-267): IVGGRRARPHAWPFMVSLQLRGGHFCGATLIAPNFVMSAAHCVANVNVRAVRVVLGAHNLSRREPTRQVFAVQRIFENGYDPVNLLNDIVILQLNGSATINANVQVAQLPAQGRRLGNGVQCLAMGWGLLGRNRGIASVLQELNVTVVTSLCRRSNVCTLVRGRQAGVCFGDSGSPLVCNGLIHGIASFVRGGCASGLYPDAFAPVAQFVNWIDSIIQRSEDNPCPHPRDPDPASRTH
Method: as §2
(§6) The same methodology was used to visualize potential cross-reactivity of NSP’s with PK401. 100nM of each NSP was incubated with buffer or 100nM PK401, followed by SDS-page and transfer to nitrocellulose membrane. For more details see S1 Text.
as §3
(§7) A standard SDS broad spectrum marker (Biorad) was used (Fig. 4A, lane 1).
(§8) Two Eppendorf tubes with 100nM of NSP4 were incubated with Ac-IVPR-CMK for 30 minutes at 37°C and then treated with PK401 at 2000nM and 1000nM for an additional 20 minutes at 37° C (Fig. 4, lanes 2 and 3). Separately, 100nM enzyme […]
as §4, §5

CatG [4] = target: T2, CatG; experiment: SDS-PAGE / streptavidin blot labeling of CatG by probe; type: binding; conditions: 100 nM active enzyme, 100 nM PK401; streptavidin blot (Fig 4B)
Method: as §2, §6, §3, §7, §8, §4, §5

CatG [5] = target: T2, CatG; experiment: Fluorogenic substrate hydrolysis kinetics with CatG; type: biochemical; conditions: Table 3; assay substrate for CatG; Km above 100 μM, the concentration used in the assay; read-out: Km of the substrate used for analysis
Method: Kinetic parameters of selected substrates were determined in 50 mM Hepes, 0.1 M NaCl, 0.1%TRITON-X100, pH 7.45 assay buffer on 96 wells Corning plates. Measurements were performed for a minimum of 20 minutes. The excitation wavelength was 355 nm, and the emission wavelength was 460 nm, with a cutoff of 455 nm. Human NE and CatG were purchased from Biocentrum, Krakow, Poland and PR3 from Athens Research Technology, Athens, Georgia, USA. Recombinant human NSP4 was expressed and purified as previously described.
In addition to NSP4, neutrophils contain three other structurally-related serine proteases NE, PR3 and CatG [1] that are also stored in azurophilic granules. To estimate the degree of eventual cross reactivity of the optimal substrate with these three serine proteases, we measured kinetic parameters for each enzyme on PK421. […] In the case of CatG we were unable to saturate the enzyme and therefore could not calculate the individual values of kcat and Km.

Row | Km (CatG [5]) [µM] | Substance | kobs/I (second order rate constant of inhibition) (NSP4 [1]; NSP4 2.8 nM active enzyme, probe 6.6–20 nM, substrate Ac-hCha-Phe(guan)-Pro-Arg-ACC above Km, 37°C, Hepes buffer pH 7.45, corrected by 1+[S]/Km) [M⁻¹ s⁻¹] | Fold higher kobs/I than PK401b (NSP4 [1]; NSP4, diastereoisomers compared) [times] | Inhibition of CatG relative to NSP4 (kobs/I) (CatG [2]) | Probe concentration giving robust labeling of NSP4 (NSP4 [3]) [nM] | Labeling of NE by probe (NE) | Labeling of CatG by probe (CatG [4])
1 |  | Biot-Ahx-hCha-Phe(guan)-Oic-Arg^P(OPh)2 [PK401] | 3.8e+06 | 40 | three orders of magnitude slower | 10 | only trace amounts of labeling | only trace amounts of labeling
2 | > 100 | Suc-Ala-Ala-Pro-Phe-AMC [assay substrate for CatG] |  |  |  |  |  | 
